Legend:
[1] = biological target: T1, CtGK (Thermochaetoides thermophila, UniProt G0SAG9); assay: thermal shift assay, Sypro Orange; format: binding; settings: 50 mM Tris, 200 mM NaCl, pH 8.0
T1 construct: gene CTHT_0042250; residues 67-590 (models start at residue 65), N-terminal His-tag cut by TEV, codon-optimized gene, E. coli BL21(DE3), dimer
T1 sequence (G0SAG9 67-590): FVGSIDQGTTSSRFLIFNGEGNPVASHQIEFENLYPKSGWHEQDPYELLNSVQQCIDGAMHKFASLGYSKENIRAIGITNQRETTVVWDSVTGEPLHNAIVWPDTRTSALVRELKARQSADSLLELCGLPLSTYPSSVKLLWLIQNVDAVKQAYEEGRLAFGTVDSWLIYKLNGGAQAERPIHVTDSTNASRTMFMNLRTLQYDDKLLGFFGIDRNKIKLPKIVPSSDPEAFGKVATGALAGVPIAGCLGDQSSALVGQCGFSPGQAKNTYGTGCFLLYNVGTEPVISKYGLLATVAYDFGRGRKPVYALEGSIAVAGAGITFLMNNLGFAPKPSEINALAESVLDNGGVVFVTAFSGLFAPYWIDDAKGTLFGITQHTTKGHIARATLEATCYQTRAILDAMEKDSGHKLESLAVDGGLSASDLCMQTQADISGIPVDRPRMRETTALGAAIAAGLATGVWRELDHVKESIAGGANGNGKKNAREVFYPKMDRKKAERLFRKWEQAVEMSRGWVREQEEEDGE

[2] = biological target: T1, CtGK; assay: X-ray crystal structure (glycerol soak); format: binding; settings: 20-25% glycerol as cryoprotectant; 0.2 M CaCl2, PEG 3350; active site in N-terminal domain
[3] = substrate: Nc1ncnc2c1ncn2[C@@H]1O[C@H](COP(=O)(O)OP(=O)(O)OP(=O)(O)O)[C@@H](O)[C@H]1O; assay: purified protein; format: biochemical, Thermochaetoides thermophila; settings: 1 mM glycerol, 5 mM MgCl2, 50 mM KCl, 250 mM sucrose, 20 mM Tris-HCl pH 7.4, 37 °C, substrate inhibition at high ATP
[4] = biological target: the molecule itself; assay: SEC-MALS; XBridge BEH200 7.8 x 300 column, 50 mM Tris pH 7.8, 200 mM NaCl, 1 mL/min

Nc1ncnc2c1ncn2[C@@H]1O[C@H](COP(=O)(O)OP(=O)(O)O)[C@@H](O)[C@H]1O [ADP]
Tm ([1]; 0.5 mM ADP, no glycerol): 55.0 ± 1.11 °C

Nc1ncnc2c1ncn2[C@@H]1O[C@H](COP(=O)(O)OP(=O)(O)OP(=O)(O)O)[C@@H](O)[C@H]1O [ATP]
Tm ([1]; 0.5 mM ATP, no glycerol): 54.5 ± 0.00 °C

O=P(O)(O)OC[C@H]1OC(O)(COP(=O)(O)O)[C@@H](O)[C@@H]1O (stereo partly shown) [fructose-1,6-bisphosphate]
Tm ([1]; 0.5 mM FBP, with GOL and ATP, site unidentified): FBP prevents the protein destabilization by GOL and ATP (Figure S1B)

OCC(O)CO [glycerol]
Tm ([1]; 5% glycerol, no nucleotide): 53.88 ± 0.48 °C
X-ray crystal structure (glycerol soak) [2]: we were able to solve the enzyme-substrate complex with a clear electron density

B1: glycerol kinase from Chaetomium thermophilum (enzyme, UniProt G0SAG9 67-590, looked up)
chain: T1 sequence (G0SAG9 67-590)
notes: glycerol kinase, Chaetomium thermophilum, UniProt G0SAG9, residues 67-590; codon-optimised synthetic gene in pET24d with N-terminal His-Tag and TEV site; The crystal models begin at residue 65 (67 for chain B) although the construct is stated as 67-590; also called CtGK; GK; source: E. coli BL21 (DE3), purified (Ni-Sepharose, TEV cleavage, second Ni-Sepharose, gel filtration on Superdex 75); not …
Km [3]: 0.052 ± 0.009 mM
stoichiometry N [4]: 2

Reference: article PMC7765489, “Structural Characterization of Glycerol Kinase from the Thermophilic Fungus Chaetomium thermophilum” (International Journal of Molecular Sciences, 2020)
